Data: article PMC4666032, “KPT-330, a potent and selective exportin-1 (XPO-1) inhibitor, shows antitumor effects modulating the expression of cyclin D1 and survivin in prostate cancer models” (BMC Cancer, 2015)

System: PCa cell lines
Assay: Growth inhibition across the PCa cell panel
Format: cell-based
Conditions: Homo sapiens; 72 hours, range across the cell panel; read-out: IC50 values, range over PCa cell lines
Source text: Four commercial (LnCaP, 22rv1, DU145 and PC3) and twelve non-commercial (LAPC-4 [44], CWR22, PCb2 [45], PC3Lymphnode, PC3M, PC3M-pro4 [46] and PC3M-Ln4 [47], LnCaP-104S [47], LnCaP104R1 [47], LnCaP-C81 [47], C4-2B [48], VCAP [49] and DuCaP [[49]) cell lines were selected for the in vitro experimental studies for their biological characteristics: LAPC-4 (Androgen receptor [AR] positive, androgen dependent with low Akt/mTOR activities, p53 wt); LnCaP (AR positive, androgen dependent with high Akt/mTOR activities, p53 wt); LnCaP-C81 and LnCaP-C4-2B (AR positive, androgen independent with high Akt/mTOR activities, p53 wt); 22rv1 (AR positive, androgen independent with low Akt/mTOR activities, p53 wt); PC3 (AR negative, with high Akt/mTOR activities and no p53 function (p53 del) and DU145 (AR negative, with low Akt/mTOR activities and mutant p53). PC3 and DU145 have been also transfected with AR to obtain PC3AR [50] and DU-AR [51]. Benign prostatic hyperplasia line (BPH1), and Prostatic epithelial lines (EPN and RWPE-1) were used as non-neoplastic controls. Cells were routinely cultured in appropriate medium supplemented with 10 % fetal bovine serum (FBS), 1 % pen-strep and 1 % L-glutamine (Invitrogen Corporation, Carlsbad, CA). To minimize the risk to work with misidentified and/or contaminated cell lines, DNA profiling was periodically carried out in-house to authenticate cell cultures. DNA was isolated from cell lines using a standard DNA isolation kit. […]
Cells were seeded at a density of 2 x 10^4 cells/mL in 24-well plates. […] Cells were trypsinized and resuspended in 1.0 ml of saline, then counted using a NucleoCounter™ NC-100 (automated cell counter systems, Chemotec, Gydevang, Denmark). The effect on cell proliferation was measured by taking the mean cell number with respect to controls over time for the different treatment groups.
Viable cells were counted by using the NucleoCounter™ NC-100 (automated cell counter systems, Chemotec, Cydevang, DK). Apoptosis was evaluated by using Tali® Apoptosis Kit - Annexin V Alexa Fluor® 488 & Propidium Iodide-based, (Life Technologies Italia, Monza, Italy). Stained cells were then measured on a Tali® Image-Based Cytometer. […]
Six SINE analogs KPT-127, KPT-185, KPT-205, KPT-227, KPT251 and KPT-330 sharing a trifluoromethyl phenyl triazole scaffold, were investigated for their growth inhibitory and apoptotic potential in our PCa cell panel. Therefore, the effects of these XPO1 inhibitors were evaluated on the growth of PCa cell lines performing dose- and time-dependent studies. To examine the dose-dependent effects of these compounds, we treated cells with varying doses of the compounds (0, 1, 10, 50, 100, 500 and 1000 nM) and assessed viability at 72 hours after treatment. The IC50 for each compound was then calculated. […]

SMILES	IC50 [nM]
O=C(/C=C\n1cnc(-c2cc(C(F)(F)F)cc(C(F)(F)F)c2)n1)NNc1cnccn1 [KPT-330]	43 to 201
FC(F)(F)c1cc(-c2ncn(/C=C\c3nnco3)n2)cc(C(F)(F)F)c1 [KPT-251]	150 to 300
